Where two headings read alike, the source gives them in different places.
What was measured:
[1] = test system: HepG2 cells; assay: HepG2 cytotoxicity assay
Method in brief: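 Cells at 2,500 per well in MEM with 10% fetal bovine serum and 1% NEAA were exposed to test compounds for 48 h at 37°C, 5% CO2. Viability was read by fluorescence, with percent inhibition calculated against 50 μM doxorubicin (positive) and DMSO (negative) controls.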

[2] = test system: P. falciparum late stage (stages IV-V) gametocytes; design: method as in Almela et al 2016; conditions: ref Almela et al 2016, read-out: Pf GCT ATP IC50, cited from earlier work
[3] = test system: HepG2 cells; conditions: ref Almela et al 2016, cited from earlier work; for HepG2 cytoxicity (Pf GCT ATP screen): HepG2 value reported with Pf GCT ATP screen
[4] = test system: P. falciparum late stage (stages IV-V) gametocytes; assay: P. falciparum late stage gametocyte ATP depletion assay (Pf GC-ATP); conditions: 1: YES, 0: NO
[5] = HepG2 cytotoxicity unified across screens, bounds (>) given as plain numbers
[6] = HepG2 cytotoxicity unified across screens, >25 set to 25.00
[7] = P. falciparum late stage gametocyte ATP assay, TCAMS screen
[8] = reported with the Pf GCT ATP screen
[9] = >10-fold selectivity over cytotoxicity
[10] = unified HepG2 value across the three screens
[11] = P. falciparum late stage gametocyte ATP assay
[12] = HepG2 data listed with Pf GCT ATP screen

| Structure (SMILES) | Is compound selective in assay? Pf GC-ATP active? [4] | Unified cytotox [1, 6] [µM] | IC50 [2, 7] [µM] | HepG2 cytoxicity [3, 8] [µM] | Is compound selective in assay? Pf GC-ATP active? [4, 9] | also measured |
| --- | --- | --- | --- | --- | --- | --- |
| Cl.N=c1n(CCN2CCCCC2)c2ccccc2n1CC(O)c1ccc(Cl)c(Cl)c1 (centres unmarked) [TCMDC-124064] | 0 (0: NO) |  |  |  |  | Unified cytotox [1, 5]: 5.20 µM; IC50 ([2]; TCAMS library screen): 3.27 µM; HepG2 cytoxicity (Pf GCT ATP screen) [3]: 5.2 µM |
| COc1ccccc1-c1cccc(-c2cccc(NC(=O)c3ccc([N+](=O)[O-])o3)c2)n1 [TCMDC-124800] | 0 (0: NO) |  |  |  |  | Unified cytotox [1, 5]: 11.47 µM; IC50 ([2]; TCAMS library screen): 1.66 µM; HepG2 cytoxicity (Pf GCT ATP screen) [3]: 11.47 µM |
| CC(=NNC(=S)NCCc1ccccn1)c1ccccn1 [TCMDC-137895] |  | 25.00 | 1.49 | >25 | 1 (1: YES) |  |
| Cl.Ic1cc(CNC2CCCCC2)ccc1OCc1cccc(COc2ccc(CNC3CCCCC3)cc2I)c1 [TCMDC-137261] |  | 25.00 | 0.33 | >25 | 1 (1: YES) |  |
| CC(C)c1ccc(NC(=S)NN=Cc2ccccn2)cc1 [TCMDC-125520] | 1 (1: YES) |  |  |  |  | Unified cytotox [1, 10]: 12.80 µM; IC50 [2, 11]: 0.01 µM; HepG2 cytoxicity [3, 12]: 12.8 µM |
| Nc1ncc(-c2ccc3nccc(-c4ccncc4)c3c2)cc1S(=O)(=O)N1CCCCC1 [TCMDC-134265] |  | 25.00 | 2.07 | >25 | 1 (1: YES) |  |
| CCn1ncc2c(NC3CCOCC3)c(CNC(=O)c3ccnn3C)c(C)nc21 [TCMDC-136560] |  | 25.00 | 1.64 | >25 | 1 (1: YES) |  |
| Cl.N=c1n(Cc2ccc(Cl)cc2)c2ccccc2n1CC(O)c1ccc(Cl)c(Cl)c1 (centres unmarked) [TCMDC-123813] | 1 (1: YES) |  |  |  |  | Unified cytotox [1, 5]: 6.50 µM; IC50 ([2]; TCAMS library screen): 0.36 µM; HepG2 cytoxicity (Pf GCT ATP screen) [3]: 6.5 µM |
| CS(=O)(=O)c1cccc(-c2cnc3[nH]cc(-c4cccc(CCN)c4)c3c2)c1 [TCMDC-136307] |  | 25.00 | 0.47 | >25 | 1 (1: YES) |  |
| CCNC1=NC2=C(CC(C(C)(C)C)CC2)C2(CCC(C(C)(C)C)CC2)S1.Cl (centres unmarked) [TCMDC-131288] | 0 (0: NO) |  |  |  |  | Unified cytotox [1, 10]: 14.30 µM; IC50 [2, 11]: 3 µM; HepG2 cytoxicity [3, 12]: 14.3 µM |
| COc1ccc(C[C@H](N)C(=O)N[C@H]2[C@@H](O)[C@H](n3cnc4c(N(C)C)ncnc43)O[C@@H]2CO)cc1.Cl [TCMDC-123927] | 0 (0: NO) |  |  |  |  | Unified cytotox [1, 5]: 2.69 µM; IC50 ([2]; TCAMS library screen): 0.65 µM; HepG2 cytoxicity (Pf GCT ATP screen) [3]: 2.69 µM |
| N=C(N)Nc1nc(-c2ccc(NC(=O)Nc3cccc(-c4csc(NC(=N)N)n4)c3)cc2)cs1 [TCMDC-139559] |  | 25.00 | 1.43 | >25 | 1 (1: YES) |  |
| Fc1ccc2[nH]c(-c3ccc(-c4ccc(CNCCN5CCNCC5)cc4)s3)nc2c1.O=C(O)C(F)(F)F [TCMDC-132869] |  | 25.00 | 0.53 | >25 | 1 (1: YES) |  |
| CCN(CC)CCCOC(=O)c1ccc2c(c1)-c1ccc(C(=O)OCCCN(CC)CC)c3cccc-2c13.Cl [TCMDC-125491] | 1 (1: YES) |  |  |  |  | Unified cytotox [1, 10]: 20.00 µM; IC50 [2, 11]: 0.14 µM; HepG2 cytoxicity [3, 12]: 20 µM |
| CC(Cc1ccc(CNC(=O)NCc2ccc(CC(C)NCCc3cccc(Cl)c3)cc2)cc1)NCCc1cccc(Cl)c1 (centres unmarked) [TCMDC-139648] | 0 (0: NO) |  |  |  |  | Unified cytotox ([1]; HepG2 cytotoxicity unified across the three screens): 4.18 µM; IC50 ([2]; TCAMS screen comparison): 0.61 µM; HepG2 cytoxicity ([3]; value reported with the Pf GCT ATP screen): 4.18 µM |
| COc1ccc(CCNc2nc(NCc3ccccc3)c3cc(OC)c(OC)cc3n2)cc1OC [TCMDC-132017] | 0 (0: NO) |  |  |  |  | Unified cytotox [1, 10]: 4.58 µM; IC50 [2, 11]: 5.6 µM; HepG2 cytoxicity [3, 12]: 4.58 µM |
| Cc1ccc(-n2nc(-c3ccccc3)c3cc(C(=O)NCCN)sc32)cc1 [TCMDC-124776] | 0 (0: NO) |  |  |  |  | Unified cytotox [1, 5]: 7.83 µM; IC50 ([2]; TCAMS library screen): 1.11 µM; HepG2 cytoxicity (Pf GCT ATP screen) [3]: 7.83 µM |
| COc1cccc(CCNCCCCCCNCCc2ccc(Cl)cc2)c1.Cl [TCMDC-131284] | 1 (1: YES) |  |  |  |  | Unified cytotox [1, 10]: 6.10 µM; IC50 [2, 11]: 0.53 µM; HepG2 cytoxicity [3, 12]: 6.1 µM |
| COc1cc(NC(=O)c2sc(-c3ccc(Cl)cc3)cc2NC(=O)c2cccnc2)ccc1OCCN1CCCC1 [TCMDC-135397] |  | 25.00 | 0.61 | >25 | 1 (1: YES) |  |
| CC(C)CCNC(=N)Nc1ccc(OCCCCCOc2ccc(NC(=N)NCCC(C)C)cc2)cc1 [TCMDC-137614] |  | 25.00 | 0.51 | >25 | 1 (1: YES) |  |
| CCN(CC)/C(=N\CCCCCC/N=C(\NC(=N)c1ccc(Cl)cc1)N(CC)CC)NC(=N)c1ccc(Cl)cc1 [TCMDC-131806] | 1 (1: YES) |  |  |  |  | Unified cytotox [1, 10]: 43.60 µM; IC50 [2, 11]: 0.84 µM; HepG2 cytoxicity [3, 12]: 43.6 µM |
| COc1cc2c(c(Cl)c1OC)CCN(C(=O)C(F)(F)F)CC2c1ccccc1 (centres unmarked) [TCMDC-132071] |  | 25.00 | 1.95 | >25 | 1 (1: YES) |  |
| CCCCCCCn1c(=N)n(CC(O)c2ccc(Cl)c(Cl)c2)c2ccccc21.Cl (centres unmarked) [TCMDC-124065] | 0 (0: NO) |  |  |  |  | Unified cytotox [1, 5]: 6.00 µM; IC50 ([2]; TCAMS library screen): 2.02 µM; HepG2 cytoxicity (Pf GCT ATP screen) [3]: 6 µM |
| O=C(O)C(=O)O.Oc1c(CN2CCC(Cc3ccccc3)CC2)cc(Cl)c2cccnc12 [TCMDC-124594] | 1 (1: YES) |  |  |  |  | Unified cytotox [1, 5]: 9.60 µM; IC50 ([2]; TCAMS library screen): 0.6 µM; HepG2 cytoxicity (Pf GCT ATP screen) [3]: 9.6 µM |
| CC(C)CNCc1cccc(-c2ccc(CN(CCCN3CCN(C)CC3)C(=O)CCC3CCCC3)cc2)c1.O=C(O)C(F)(F)F [TCMDC-140558] |  | 25.00 | 0.7 | >25 | 1 (1: YES) |  |
| CCN(CC)Cc1cc(Nc2c3ccc(Cl)cc3nc3cccc(OC)c23)ccc1O.Cl [TCMDC-139222] |  | 25.00 | 1 | >25 | 1 (1: YES) |  |
